Our source for the IC50 values is US12168664B2, “Triazolopyrimidines, their preparation and use” (THE TRUSTEES OF COLUMBIA UNIVERSITY IN THE CITY OF NEW YORK, priority 2018, dated 2024).

SMILES strings stand for the structures. Where “and” joins values, the source holds several entries; their conditions need not be identical. Identical values can stand only once. Where only a bound is given, the exact number is not on record here.

The target in assay [1] is RBP4-TTR interaction (Homo sapiens (Human), UniProt P02753). In words: HTRF (TR-FRET) assay for antagonists of retinol-induced RBP4-TTR interaction. In kind it is biochemical. Conditions: in the presence of 1 μM retinol. The source says: TR-FRET Assay for Retinol-Induced RBP4-TTR Interaction
Binding of a desired RBP4 antagonist displaces retinol and induces hindrance for RBP4-TTR interaction resulting in the decreased FRET signal (FIG. 7). Bacterially expressed MBP-RBP4 and untagged TTR were used in this assay. For the use in the TR-FRET assay, the maltose binding protein (MBP)-tagged human RBP4 fragment (amino acids 19-201) was expressed in the Gold(DE3)pLysS E. coli strain (Stratagene) using the pMAL-c4x vector. Following cell lysis, recombinant RBP4 was purified from the soluble fraction using the ACTA FPLC system (GE Healthcare) equipped with the 5-ml the MBP Trap HP column. Human untagged TTR was purchased from Calbiochem. Untagged TTR was labeled directly with Eu^3+ Cryptate-NHS using the HTRF Cryptate Labeling kit from CisBio following the manufacturer's recommendations. HTRF assay was performed in white low volume 384 well plates (Greiner-Bio) in a final assay volume of 16 μl per well. […] Titration of test compounds in this assay was conducted in the presence of 1 μM retinol. […] TR-FRET signal was measured in the SpectraMax M5e Multimode Plate Reader (Molecular Device). […] The TR-FRET signal was expressed as the ratio of fluorescence intensity: Flu665/Flu620×10,000.
The compounds listed below were tested in two in vitro assays, RBP4 binding (SPA) and retinol-dependent RBP4-TTR interaction (HTRF) (Table 1).

The target in assay [2] is PPARγ (Homo sapiens (Human), UniProt P37231). In words: PPARγ agonist assay (HTRF, PPARγ-NCOR interaction). In kind it is biochemical. Conditions: read-out: PPAR γ assay (HTRF) for agonists of this nuclear receptor - IC50. The source says:
Significant safety issues are associated with the clinical use of PPARγ agonists (increased risk of death, myocardial infarction, stroke, congestive heart failure, hepatotoxicity, peripheral edema, weight gain and carcinogenicity^1-4). We wanted to characterize the compounds we identified in a pilot screen as potential PPARγ agonists. The PPARγ assay is based on agonist-sensitive interaction of the GST-tagged ligand-binding domain (LRD) of the nuclear receptor PPARγ with the biotinylated corepressor NCOR peptide (FIG. 8).
Assay reactions are performed in a final volume of 16 ul.
In well of the 384-well assay plate, mix 6 ul of PPARγ solution, 4 ul of NCOR2 solution and 4 μl of Rosi solution. Test compounds diluted from DMSO stocks to 4× assay concentration in 1×HTRF, 100 mM KF buffer may be dispensed to well instead of Rosi. Negative control wells contained DMSO solvent alone; positive control well contained […]. […] Two μl of detection mix was added per well. […] The plate was incubated for 16 hrs at 4° C.
HTRF signal was measured in the SpectraMax M5e Multimode Plate Reader (Molecular Device). Fluorescence was excited at 337 nm. […] The signal was expressed as the ratio of fluorescence intensity: Flu668/Flu620×10,000. […]
In general terms: Time-resolved FRET reads energy transfer from a long-lived donor to a nearby acceptor.

Chain of PPARγ (P37231 204-505): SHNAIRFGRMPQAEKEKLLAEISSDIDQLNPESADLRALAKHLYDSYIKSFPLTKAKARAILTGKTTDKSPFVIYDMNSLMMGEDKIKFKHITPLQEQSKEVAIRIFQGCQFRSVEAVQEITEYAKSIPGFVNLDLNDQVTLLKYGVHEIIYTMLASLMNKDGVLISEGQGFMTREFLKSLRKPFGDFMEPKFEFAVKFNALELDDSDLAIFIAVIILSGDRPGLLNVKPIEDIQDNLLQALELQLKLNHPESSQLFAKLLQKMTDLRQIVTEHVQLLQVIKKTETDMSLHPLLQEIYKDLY

As to `O=C(c1nc2ncccn2n1)N1C[C@H]2C[C@@H](c3ccccc3C(F)(F)F)C[C@H]2C1` [Compound 7a], the IC50 in assay [1] was 209 nM and 194 nM and 240 nM; in assay [2], more than 100 µM.

As usually defined, the IC50 is the concentration needed to halve the response being measured.
